In patent publication US8802866B2, “Pyridinylimidazolone derivatives for the inhibition of PI3 kinases” (Merck Patent GmbH, priority 2009, dated 2014):
pIC50, pKd: −log10 of the molar value.

What was measured:
PI3Kbeta = PI3Kbeta (Homo sapiens, UniProt P42338); experiment: Biochemical PI3Kbeta assay (neomycin SPA, lipid phosphorylation); details: human recombinant GST-PI3K
How it was run: (§1)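 Recombinant PI3K incubated with lipid substrate and radioactive ATP for 120 min at room temperature with gentle stirring, then stopped with neomycin-coated PVT-SPA beads, ATP 60 mM and EDTA 6.2 mM in PBS. After 60 min bead binding and centrifugation, radioactive Ptdlns(3)P counted by scintillation.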

PI3Kalpha = PI3Kalpha (Homo sapiens, UniProt P42336); experiment: Biochemical PI3Kalpha assay (neomycin SPA, lipid phosphorylation); details: human recombinant GST-PI3K
How it was run: as §1

[1] = target: recombinant PI3Kalpha (shortened form of the catalytic subunit) (Homo sapiens, UniProt P42336); experiment: BIACORE PI3K binding assay (SPR); details: 25° C.
How it was run: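 Contact time was 180 s and dissociation 240 s, in HEPES pH 7.40 buffer with 2% DMSO. Solvent-corrected, double-referenced data were fitted to a 1:1 model with mass transport.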

[2] = system: PI3K-dependent phosphorylation of PKB at Serin 473 in PC3 cells; experiment: Cellular PI3K assay (P-S473-PKB Luminex assay in PC3 cells); assay type: cell-based; details: Homo sapiens, PC-3, 0.5 h; PC3 cells, 30 min, serum-free, P-S473-PKB; read-out: IC50 (cell)
How it was run: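 PC3 cells were exposed for 30 min under serum-free conditions to 7 concentrations of compound, then lysed. Lysates were captured overnight at 4°C on anti-total-PKB Luminex beads and detected with P-S473-PKB antibody plus PE-labelled secondary.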

DNA-PK protein complex = DNA-PK protein complex (Homo sapiens, UniProt P78527); experiment: Biochemical DNA-PK assay (FlashPlate)
How it was run: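 Streptavidin-coated FlashPlate radiometric kinase assay, stopped with 200 mM EDTA, then wells washed with 0.9% NaCl and bound radioactivity counted. Blank (non-specific reaction) defined with a proprietary kinase inhibitor at 10 μM.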

mTOR = target: T1, mTOR (Homo sapiens, UniProt P42345); experiment: Biochemical mTOR assay (Millipore mTOR assay kit)
T1 construct: purchased Millipore 14-770
Description: The biochemical mTOR assay was carried out by the method described in the Millipore mTOR assay kit (catalogue number 14-770).

CK2 protein kinase = details: cited from earlier work

Chain of PI3Kbeta (P42338 whole entry): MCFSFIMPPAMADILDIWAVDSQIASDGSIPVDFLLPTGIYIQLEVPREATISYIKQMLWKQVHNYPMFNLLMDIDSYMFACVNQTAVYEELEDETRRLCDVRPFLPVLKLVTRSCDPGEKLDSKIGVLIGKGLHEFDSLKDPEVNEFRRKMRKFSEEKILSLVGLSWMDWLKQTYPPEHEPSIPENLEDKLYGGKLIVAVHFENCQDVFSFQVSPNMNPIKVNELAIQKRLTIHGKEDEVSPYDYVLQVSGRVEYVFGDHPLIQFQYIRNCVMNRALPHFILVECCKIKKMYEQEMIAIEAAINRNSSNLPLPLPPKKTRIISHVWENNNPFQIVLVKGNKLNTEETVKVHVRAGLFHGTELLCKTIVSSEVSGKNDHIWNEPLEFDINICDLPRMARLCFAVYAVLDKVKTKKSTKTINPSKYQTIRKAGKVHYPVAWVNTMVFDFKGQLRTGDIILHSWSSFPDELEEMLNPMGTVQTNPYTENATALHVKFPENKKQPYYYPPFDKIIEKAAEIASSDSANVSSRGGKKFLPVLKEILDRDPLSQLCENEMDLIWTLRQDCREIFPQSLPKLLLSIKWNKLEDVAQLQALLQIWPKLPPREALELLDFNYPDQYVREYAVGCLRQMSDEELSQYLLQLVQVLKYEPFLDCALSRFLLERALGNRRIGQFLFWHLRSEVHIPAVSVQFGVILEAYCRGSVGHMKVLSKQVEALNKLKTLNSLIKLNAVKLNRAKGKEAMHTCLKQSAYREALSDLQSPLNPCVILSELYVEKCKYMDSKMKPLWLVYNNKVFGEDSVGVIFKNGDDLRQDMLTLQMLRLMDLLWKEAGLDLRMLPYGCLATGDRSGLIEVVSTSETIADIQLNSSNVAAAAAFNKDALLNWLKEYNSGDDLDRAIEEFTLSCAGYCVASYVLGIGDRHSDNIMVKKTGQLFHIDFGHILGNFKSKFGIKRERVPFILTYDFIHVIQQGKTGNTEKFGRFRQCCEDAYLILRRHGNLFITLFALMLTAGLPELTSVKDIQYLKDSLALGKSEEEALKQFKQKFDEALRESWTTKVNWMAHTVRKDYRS
Chain of PI3Kbeta (P27986 whole entry partner): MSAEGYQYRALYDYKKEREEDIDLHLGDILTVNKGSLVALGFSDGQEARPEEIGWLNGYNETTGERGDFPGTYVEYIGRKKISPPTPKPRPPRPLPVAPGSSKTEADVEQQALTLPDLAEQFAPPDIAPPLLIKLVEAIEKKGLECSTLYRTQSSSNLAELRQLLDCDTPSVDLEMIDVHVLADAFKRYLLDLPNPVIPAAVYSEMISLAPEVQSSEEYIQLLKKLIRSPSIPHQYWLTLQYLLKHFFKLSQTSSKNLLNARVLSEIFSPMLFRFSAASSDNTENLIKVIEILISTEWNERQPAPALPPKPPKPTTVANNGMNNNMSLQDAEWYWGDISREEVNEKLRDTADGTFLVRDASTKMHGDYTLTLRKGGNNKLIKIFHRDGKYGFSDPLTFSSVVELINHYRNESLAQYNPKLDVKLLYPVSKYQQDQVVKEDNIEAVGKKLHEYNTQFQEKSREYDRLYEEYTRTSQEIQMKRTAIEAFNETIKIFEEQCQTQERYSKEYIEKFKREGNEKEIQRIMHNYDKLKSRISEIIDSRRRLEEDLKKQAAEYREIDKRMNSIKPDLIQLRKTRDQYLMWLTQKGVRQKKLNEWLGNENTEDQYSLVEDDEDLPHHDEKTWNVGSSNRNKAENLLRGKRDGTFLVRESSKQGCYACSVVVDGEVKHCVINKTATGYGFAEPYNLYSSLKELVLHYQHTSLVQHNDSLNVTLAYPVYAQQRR
T1 sequence (P42345 1362-2549 limits assumed): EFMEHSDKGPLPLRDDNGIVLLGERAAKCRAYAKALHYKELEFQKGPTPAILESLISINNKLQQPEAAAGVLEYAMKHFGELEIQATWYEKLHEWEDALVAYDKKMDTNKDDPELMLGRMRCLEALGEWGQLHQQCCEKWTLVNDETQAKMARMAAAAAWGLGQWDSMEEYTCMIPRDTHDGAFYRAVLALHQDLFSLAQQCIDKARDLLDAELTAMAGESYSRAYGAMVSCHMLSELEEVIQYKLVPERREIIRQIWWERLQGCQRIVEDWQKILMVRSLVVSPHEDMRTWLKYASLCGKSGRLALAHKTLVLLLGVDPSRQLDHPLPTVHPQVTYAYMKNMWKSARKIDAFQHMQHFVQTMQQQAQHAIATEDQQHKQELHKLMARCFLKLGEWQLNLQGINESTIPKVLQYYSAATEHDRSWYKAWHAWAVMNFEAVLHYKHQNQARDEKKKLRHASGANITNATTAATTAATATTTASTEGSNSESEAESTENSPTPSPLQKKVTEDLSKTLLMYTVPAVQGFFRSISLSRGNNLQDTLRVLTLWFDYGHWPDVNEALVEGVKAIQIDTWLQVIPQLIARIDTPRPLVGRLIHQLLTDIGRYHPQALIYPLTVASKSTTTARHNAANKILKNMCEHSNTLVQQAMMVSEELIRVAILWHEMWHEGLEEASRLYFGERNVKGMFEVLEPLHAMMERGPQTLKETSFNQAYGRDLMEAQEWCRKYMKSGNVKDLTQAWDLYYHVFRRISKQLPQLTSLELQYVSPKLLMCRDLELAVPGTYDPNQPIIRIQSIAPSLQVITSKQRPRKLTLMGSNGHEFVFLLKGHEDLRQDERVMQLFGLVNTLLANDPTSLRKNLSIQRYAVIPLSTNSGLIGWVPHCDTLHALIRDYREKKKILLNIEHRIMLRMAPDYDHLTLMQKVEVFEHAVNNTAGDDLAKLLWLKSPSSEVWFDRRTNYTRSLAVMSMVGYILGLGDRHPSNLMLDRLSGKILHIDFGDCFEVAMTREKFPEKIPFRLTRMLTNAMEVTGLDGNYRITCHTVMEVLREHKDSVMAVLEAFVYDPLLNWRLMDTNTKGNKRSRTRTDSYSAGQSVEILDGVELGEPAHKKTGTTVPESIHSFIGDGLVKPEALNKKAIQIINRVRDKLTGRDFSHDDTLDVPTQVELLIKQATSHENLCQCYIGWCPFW
Chain of PI3Kalpha (P42336 whole entry): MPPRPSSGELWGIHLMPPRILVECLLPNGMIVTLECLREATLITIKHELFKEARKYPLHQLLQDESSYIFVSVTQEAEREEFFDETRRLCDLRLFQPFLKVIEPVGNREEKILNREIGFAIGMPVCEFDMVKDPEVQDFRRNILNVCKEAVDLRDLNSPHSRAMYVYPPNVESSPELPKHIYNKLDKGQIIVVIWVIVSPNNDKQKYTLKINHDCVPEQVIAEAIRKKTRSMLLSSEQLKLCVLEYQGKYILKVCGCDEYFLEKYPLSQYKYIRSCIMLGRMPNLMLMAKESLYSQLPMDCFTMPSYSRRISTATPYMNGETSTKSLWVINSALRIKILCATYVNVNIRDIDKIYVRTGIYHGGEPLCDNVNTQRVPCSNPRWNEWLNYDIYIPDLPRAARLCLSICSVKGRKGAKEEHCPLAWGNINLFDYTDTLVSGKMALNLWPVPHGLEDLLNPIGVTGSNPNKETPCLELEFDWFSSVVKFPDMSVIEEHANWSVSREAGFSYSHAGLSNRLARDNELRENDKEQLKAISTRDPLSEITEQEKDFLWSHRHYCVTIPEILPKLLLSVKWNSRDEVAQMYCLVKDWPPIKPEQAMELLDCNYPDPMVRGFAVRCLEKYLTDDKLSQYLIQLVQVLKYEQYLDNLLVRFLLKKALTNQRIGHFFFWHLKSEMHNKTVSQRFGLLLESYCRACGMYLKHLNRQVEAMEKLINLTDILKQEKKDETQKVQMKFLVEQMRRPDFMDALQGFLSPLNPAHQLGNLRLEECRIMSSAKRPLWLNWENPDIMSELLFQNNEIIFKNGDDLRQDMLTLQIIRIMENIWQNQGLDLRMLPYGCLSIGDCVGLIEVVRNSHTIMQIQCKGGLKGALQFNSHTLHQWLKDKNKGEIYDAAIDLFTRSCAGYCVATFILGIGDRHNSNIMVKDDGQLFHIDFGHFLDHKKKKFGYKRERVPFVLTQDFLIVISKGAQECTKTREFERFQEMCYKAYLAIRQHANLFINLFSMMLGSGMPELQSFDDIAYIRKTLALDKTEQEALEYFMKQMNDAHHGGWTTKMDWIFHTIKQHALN
Chain of PI3Kalpha (P27986 whole entry partner): as the sequence (P27986 whole entry partner) above
Chain of recombinant PI3Kalpha (shortened form of the catalytic subunit) (P42336 151-1068 limits assumed): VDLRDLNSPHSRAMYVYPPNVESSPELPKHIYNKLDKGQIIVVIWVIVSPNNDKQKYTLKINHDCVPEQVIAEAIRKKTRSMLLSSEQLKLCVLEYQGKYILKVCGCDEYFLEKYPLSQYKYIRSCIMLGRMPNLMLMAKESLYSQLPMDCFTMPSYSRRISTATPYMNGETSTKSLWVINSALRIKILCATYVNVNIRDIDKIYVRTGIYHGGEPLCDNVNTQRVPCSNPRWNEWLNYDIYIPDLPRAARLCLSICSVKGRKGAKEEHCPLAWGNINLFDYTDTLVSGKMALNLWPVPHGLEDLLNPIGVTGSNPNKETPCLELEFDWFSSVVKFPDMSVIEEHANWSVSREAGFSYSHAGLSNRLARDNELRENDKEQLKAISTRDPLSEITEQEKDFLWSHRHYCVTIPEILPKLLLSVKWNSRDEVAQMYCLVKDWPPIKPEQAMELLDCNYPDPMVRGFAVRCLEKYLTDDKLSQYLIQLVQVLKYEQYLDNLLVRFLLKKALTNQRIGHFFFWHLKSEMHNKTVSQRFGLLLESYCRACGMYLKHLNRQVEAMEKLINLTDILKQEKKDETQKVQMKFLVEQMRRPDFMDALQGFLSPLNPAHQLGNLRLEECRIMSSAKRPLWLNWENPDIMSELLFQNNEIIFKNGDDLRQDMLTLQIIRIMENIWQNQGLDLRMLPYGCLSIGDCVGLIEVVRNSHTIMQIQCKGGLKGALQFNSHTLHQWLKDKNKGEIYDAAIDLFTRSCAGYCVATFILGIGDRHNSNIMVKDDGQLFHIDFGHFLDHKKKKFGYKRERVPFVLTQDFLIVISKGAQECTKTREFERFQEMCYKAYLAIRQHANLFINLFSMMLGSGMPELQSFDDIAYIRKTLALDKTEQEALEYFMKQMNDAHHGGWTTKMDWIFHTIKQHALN

What does the source list for Cn1cc(-c2cc(-c3cnc4c(c3)CCN4)ccn2)n(-c2ccc(C(C)(C)C#N)cc2)c1=O [Example A43, 2-(4-{5-[4-(2,3-Dihydro-1H-pyrrolo[2,3-b]pyridin-5-yl)pyridin-2-yl]-3-methyl-2-oxo-2,3-dihydroimidazol-1-yl}phenyl)-2-methylpropionitrile]?
pIC50 (PI3Kbeta): 5.00 to 7.00; pIC50 (PI3Kalpha): 7.00 to 10.00; pKd [1]: 7.00 to 10.00; pIC50 [2]: 5.00 to 7.00; pIC50 (DNA-PK protein complex): 7.00 to 10.00; pIC50 (mTOR): 5.00 to 7.00; melting point: 247 °C

With Cn1cc(-c2cc(-c3cnc4c(c3)CC(=O)N4)ccn2)n(-c2ccc(C(C)(C)C#N)cc2)c1=O [Example A44, 2-Methyl-2-(4-{3-methyl-2-oxo-5-[4-(2-oxo-2,3-dihydro-1H-pyrrolo[2,3-b]pyridin-5-yl)pyridin-2-yl]-2,3-dihydroimidazol-1-yl}phenyl)propionitrile] as the molecule, how does the pIC50 (PI3Kbeta) read?
The pIC50 was 5.00 to 7.00.

What about the pIC50 (PI3Kalpha) of the same molecule?
The pIC50 was 5.00 to 7.00.

What about the pKd [1] of the same molecule?
Its pKd is 7.00 to 10.00.

What about the pIC50 [2] of the same molecule?
Its pIC50 is 5.00 to 7.00.

What about the pIC50 (DNA-PK protein complex) of the same molecule?
The pIC50 was 7.00 to 10.00.

What about the pIC50 (mTOR) of the same molecule?
The pIC50 was 5.00 to 7.00.

What about the melting point of the same molecule?
Its melting point is 263 °C.

Which results are given for CN1CCN(c2ccc(-n3c(-c4cc(-c5cnc6[nH]ccc6c5)ccn4)cn(C)c3=O)cc2C(F)(F)F)CC1 [Example A49, 1-Methyl-3-[4-(4-methylpiperazin-1-yl)-3-trifluoromethylphenyl]-4-[4-(1H-pyrrolo[2,3-b]pyridin-5-yl)pyridin-2-yl]-1,3-dihydroimidazol-2-one]?
pIC50 (PI3Kbeta): 5.00 to 7.00; pIC50 (PI3Kalpha): 5.00 to 7.00; pKd [1]: 7.00 to 10.00; pIC50 [2]: 5.00 to 7.00; pIC50 (DNA-PK protein complex): 7.00 to 10.00; pIC50 (mTOR): 5.00 to 7.00; melting point: 241 °C

Which results are given for Cn1cc(-c2cc(-c3ccc4[nH]ncc4c3)ccn2)n(-c2ccc(C(C)(C)C#N)cc2)c1=O [Example A52, 2-(4-{5-[4-(1H-Indazol-5-yl)pyridin-2-yl]-3-methyl-2-oxo-2,3-dihydroimidazol-1-yl}phenyl)-2-methylpropionitrile]?
pIC50 (PI3Kbeta): 5.00 to 7.00; pIC50 (PI3Kalpha): 5.00 to 7.00; pKd [1]: 7.00 to 10.00; pIC50 [2]: 5.00 to 7.00; pIC50 (DNA-PK protein complex): 7.00 to 10.00; pIC50 (mTOR): 5.00 to 7.00; melting point: 165 °C

With Cn1cc(-c2cc(-c3cnc4[nH]ccc4c3)ccn2)n(-c2cccc(C#N)c2)c1=O [Example A55, 3-{3-Methyl-2-oxo-5-[4-(1H-pyrrolo[2,3-b]pyridin-5-yl)pyridin-2-yl]-2,3-dihydro-imidazol-1-yl}benzonitrile] as the molecule, how does the pIC50 (PI3Kbeta) read?
Its pIC50 is 5.00 to 7.00.

And the pIC50 (PI3Kalpha)?
Its pIC50 is 5.00 to 7.00.

And the pKd [1]?
The pKd was 5.00 to 7.00.

What about the pIC50 [2] of the same molecule?
The pIC50 was 5.00 to 7.00.

What about the pIC50 (DNA-PK protein complex) of the same molecule?
The pIC50 was 7.00 to 10.00.

And the pIC50 (mTOR)?
The pIC50 was 5.00 to 7.00.

And the melting point?
Its melting point is 265 °C.

With O=c1cc(N2CCOCC2)oc2c(-c3ccccc3)cccc12 [LY294002] as the molecule, how does the pIC50 (CK2 protein kinase) read?
The pIC50 was 5.00 to 5.30.
